Measurements taken from patent US12545639B2, “3-substituted phenylamidine compounds, preparation and use thereof” (PI INDUSTRIES LTD., priority 2019, dated 2026).

What was measured:
Pyricularia oryzae = experiment: microbe, parasite or virus in culture; type: cell-based; settings: 168 h, read-out: control compared to the untreated check (radial growth)
Rhizoctonia solani = Rhizoctonia solani (rice sheath blight/potato black scurf) in vitro test, radial growth on potato dextrose agar; type: cell-based; settings: 168 h, 300 ppm in potato dextrose agar, 25° C., 60% relative humidity, seven days, read-out: control compared to the untreated check (radial growth)
Botrytis cinerea = Botrytis cinerea (gray mold) in vitro test, radial growth on potato dextrose agar; type: cell-based; settings: 168 h, 300 ppm in potato dextrose agar, 22° C., 90% relative humidity, seven days, read-out: control compared to the untreated check (radial growth)
Alternaria solani = Alternaria solani (early blight of tomato/potato) in vitro test, radial growth on potato dextrose agar; type: cell-based; settings: 168 h, 300 ppm in potato dextrose agar, 25° C., 60% relative humidity, seven days, read-out: control compared to the untreated check (radial growth)
[1] = test system: Septoria lycopersici/Corynespora cassicola (CORYCA); experiment: Septoria lycopersici/Corynespora cassicola (CORYCA) (leaf spot of tomato) in vitro test, radial growth on potato dextrose agar; type: cell-based; settings: 168 h, 300 ppm in potato dextrose agar, 25° C., 70% relative humidity, seven days, read-out: control compared to the untreated check (radial growth)
Phakopsora pachyrhizi = Phakopsora pachyrhizi test in soybean, preventive, in vivo on plants; settings: in Glycine max, read-out: Efficacy (% control), disease severity compared to the untreated check

CCN(C)C=Nc1cc(F)cc(Nc2cccc(C(F)(F)F)n2)c1C [Compound 273, N-ethyl-N′-(5-fluoro-2-methyl-3-((6-(trifluoromethyl)pyridin-2-yl)amino)phenyl)-N-methylformimidamide]
≥ 70%: inhibition of growth at 300 ppm (Pyricularia oryzae) | inhibition of growth at 300 ppm (Rhizoctonia solani) | inhibition of growth at 300 ppm (Botrytis cinerea) | inhibition of growth at 300 ppm (Alternaria solani) | inhibition of growth at 300 ppm [1] | pest or weed control at 500 ppm (Phakopsora pachyrhizi)

CCN(C)C=Nc1cc(OC)cc(Cc2cccc(C(F)(F)F)c2)c1C [Compound 296, N-ethyl-N′-(5-methoxy-2-methyl-3-(3-(trifluoromethyl)benzyl)phenyl)-N-methylformimidamide]
≥ 70%: inhibition of growth at 300 ppm (Pyricularia oryzae) | inhibition of growth at 300 ppm (Rhizoctonia solani) | inhibition of growth at 300 ppm (Botrytis cinerea) | inhibition of growth at 300 ppm (Alternaria solani) | inhibition of growth at 300 ppm [1] | pest or weed control at 500 ppm (Phakopsora pachyrhizi)

CCN(C)C=Nc1cc(F)cc(Cc2cc(F)cc(OC)c2)c1C [Compound 237, N-ethyl-N′-(5-fluoro-3-(3-fluoro-5-methoxybenzyl)-2-methylphenyl)-N-methylformimidamide]
≥ 70%: inhibition of growth at 300 ppm (Pyricularia oryzae) | inhibition of growth at 300 ppm (Rhizoctonia solani) | inhibition of growth at 300 ppm (Botrytis cinerea) | inhibition of growth at 300 ppm (Alternaria solani) | inhibition of growth at 300 ppm [1] | pest or weed control at 500 ppm (Phakopsora pachyrhizi)

CCN(C)C=Nc1cc(F)cc(Cc2ccc(Cl)c(F)c2)c1C [Compound 206, N′-(3-(4-chloro-3-fluorobenzyl)-5-fluoro-2-methylphenyl)-N-ethyl-N-methylformimidamide]
≥ 70%: inhibition of growth at 300 ppm (Pyricularia oryzae) | inhibition of growth at 300 ppm (Rhizoctonia solani) | inhibition of growth at 300 ppm (Botrytis cinerea) | inhibition of growth at 300 ppm (Alternaria solani) | inhibition of growth at 300 ppm [1] | pest or weed control at 500 ppm (Phakopsora pachyrhizi)

CCN(C)C=Nc1cc(F)cc(Cc2cccc(F)c2)c1C [Compound 147, N-ethyl-N′-(5-fluoro-3-(3-fluorobenzyl)-2-methylphenyl)-N-methylformimidamide]
≥ 70%: inhibition of growth at 300 ppm (Pyricularia oryzae) | inhibition of growth at 300 ppm (Rhizoctonia solani) | inhibition of growth at 300 ppm (Botrytis cinerea) | inhibition of growth at 300 ppm (Alternaria solani) | inhibition of growth at 300 ppm [1] | pest or weed control at 500 ppm (Phakopsora pachyrhizi)

CCN(C)C=Nc1cc(F)cc(Cc2ccccc2Br)c1C [Compound 151, N′-(3-(2-bromobenzyl)-5-fluoro-2-methylphenyl)-N-ethyl-N-methylformimidamide]
≥ 70%: inhibition of growth at 300 ppm (Pyricularia oryzae) | inhibition of growth at 300 ppm (Rhizoctonia solani) | inhibition of growth at 300 ppm (Botrytis cinerea) | inhibition of growth at 300 ppm (Alternaria solani) | inhibition of growth at 300 ppm [1] | pest or weed control at 500 ppm (Phakopsora pachyrhizi)

CCN(C)C=Nc1cc(F)cc(Cc2ccccc2)c1C [Compound 149, N′-(3-benzyl-5-fluoro-2-methylphenyl)-N-ethyl-N-methylformimidamide]
≥ 70%: inhibition of growth at 300 ppm (Pyricularia oryzae) | inhibition of growth at 300 ppm (Rhizoctonia solani) | inhibition of growth at 300 ppm (Botrytis cinerea) | inhibition of growth at 300 ppm (Alternaria solani) | inhibition of growth at 300 ppm [1] | pest or weed control at 500 ppm (Phakopsora pachyrhizi)

CCN(C)C=Nc1cc(F)cc(Nc2cccc(F)c2)c1C [Compound 29, N-ethyl-N′-(5-fluoro-3-((3-fluorophenyl)amino)-2-methylphenyl)-N-methylformimidamide]
≥ 70%: inhibition of growth at 300 ppm (Pyricularia oryzae) | inhibition of growth at 300 ppm (Rhizoctonia solani) | inhibition of growth at 300 ppm (Botrytis cinerea) | inhibition of growth at 300 ppm (Alternaria solani) | inhibition of growth at 300 ppm [1] | pest or weed control at 500 ppm (Phakopsora pachyrhizi)
